Among the data in ChEMBL document CHEMBL2007661, “Compounds: GSK PKIS; Assays: UNC Frye lab” (2012) are inhibition values, retold here.

Where “and” joins values, the source holds several entries; their conditions need not be identical. Equal entries are not always repeated.

Assay [1] deals with T1, Inhibitor of nuclear factor kappa-B kinase subunit epsilon (Homo sapiens) (UniProt Q14164).
T1 sequence (whole entry): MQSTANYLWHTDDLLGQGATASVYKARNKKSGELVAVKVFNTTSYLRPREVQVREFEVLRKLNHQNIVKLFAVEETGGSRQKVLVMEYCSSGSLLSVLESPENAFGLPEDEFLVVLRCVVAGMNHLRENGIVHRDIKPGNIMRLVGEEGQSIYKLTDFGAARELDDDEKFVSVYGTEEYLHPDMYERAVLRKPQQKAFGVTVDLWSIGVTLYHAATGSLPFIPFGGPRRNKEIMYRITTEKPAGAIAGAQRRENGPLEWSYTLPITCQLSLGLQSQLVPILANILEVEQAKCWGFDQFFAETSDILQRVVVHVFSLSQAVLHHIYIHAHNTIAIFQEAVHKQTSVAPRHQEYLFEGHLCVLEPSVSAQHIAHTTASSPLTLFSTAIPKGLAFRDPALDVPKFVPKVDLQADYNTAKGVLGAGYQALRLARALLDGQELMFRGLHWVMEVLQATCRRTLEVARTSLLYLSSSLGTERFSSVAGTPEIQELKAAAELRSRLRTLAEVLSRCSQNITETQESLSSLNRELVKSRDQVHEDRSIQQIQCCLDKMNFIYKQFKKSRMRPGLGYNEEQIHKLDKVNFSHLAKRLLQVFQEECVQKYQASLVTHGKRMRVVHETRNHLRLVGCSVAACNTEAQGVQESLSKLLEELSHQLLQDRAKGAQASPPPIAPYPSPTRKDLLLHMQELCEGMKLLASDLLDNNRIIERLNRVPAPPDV
Conditions: at 1 µM.

In assay [2] the target is T2, Serine/threonine-protein kinase TBK1 (Homo sapiens) (UniProt Q9UHD2).
T2 sequence (whole entry): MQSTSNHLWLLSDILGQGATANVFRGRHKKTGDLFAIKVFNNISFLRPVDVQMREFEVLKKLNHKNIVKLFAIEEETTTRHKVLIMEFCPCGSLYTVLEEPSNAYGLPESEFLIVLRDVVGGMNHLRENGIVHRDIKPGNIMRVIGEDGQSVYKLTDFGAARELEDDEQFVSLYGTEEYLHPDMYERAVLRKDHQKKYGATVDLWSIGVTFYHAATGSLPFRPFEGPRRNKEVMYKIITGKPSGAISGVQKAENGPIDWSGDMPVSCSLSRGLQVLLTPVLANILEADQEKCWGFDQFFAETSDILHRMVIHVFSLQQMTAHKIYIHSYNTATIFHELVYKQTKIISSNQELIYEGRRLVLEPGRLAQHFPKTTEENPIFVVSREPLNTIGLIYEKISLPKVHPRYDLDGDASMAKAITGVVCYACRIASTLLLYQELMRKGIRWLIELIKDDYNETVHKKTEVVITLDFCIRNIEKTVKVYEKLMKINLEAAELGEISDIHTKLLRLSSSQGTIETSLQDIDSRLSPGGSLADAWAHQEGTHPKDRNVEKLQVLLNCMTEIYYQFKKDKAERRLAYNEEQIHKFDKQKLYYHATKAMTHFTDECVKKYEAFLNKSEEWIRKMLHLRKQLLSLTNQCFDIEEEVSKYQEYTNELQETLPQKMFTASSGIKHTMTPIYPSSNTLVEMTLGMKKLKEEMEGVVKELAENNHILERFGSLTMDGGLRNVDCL
The note with it: at 1 µM.

For the compound `Nc1nccc(-c2c(-c3ccc(F)cc3)ncn2C2CCC(O)CC2)n1` (stereo not given), the inhibition in assay [1] was 0% and 1%; in assay [2], 0% and -2%.
As for `Cc1ccc(C(=O)NC(C)C)cc1-c1ccc(C(=O)NCC2CC2)cc1`, the inhibition in assay [1] was 0% and -2%; in assay [2], -1% and -2%.
In the case of `Cc1ccc2c(-c3ccnc(Nc4cccc(C(F)(F)F)c4)n3)c(-c3ccccc3)nn2n1`, the inhibition is 1% and 3% in assay [1]; -1% and 1% in assay [2].
As to `Nc1nc(-c2cccc(Cl)c2)c(-c2ccc3ncccc3n2)s1`, the inhibition in assay [1] was 1%; in assay [2], 5% and 7%.
Consider `COc1ccc(-c2coc3ncnc(N)c23)cc1`, for which the inhibition was -4% in assay [1]; -7% and -5% in assay [2].
In the case of `N#Cc1cccc(Nc2ncc(-c3ccccc3)o2)c1`, the inhibition in assay [1] was 1% and -3%; in assay [2] it was 4%.
With `Nc1nonc1-c1nc2cnccc2n1C1CCCCC1`, the inhibition in assay [1] is 25%; in assay [2], 36% and 37%.
In the case of `CS(=O)(=O)CCNCc1ccc(-c2ccc3ncnc(Nc4ccc(OCc5cccc(F)c5)c(C(F)(F)F)c4)c3c2)o1`, the inhibition was 1% and 4% in assay [1]; 3% and 1% in assay [2].
For the compound `COc1ccccc1-c1cc(/C=C2\C(=O)Nc3ncc(Br)cc32)cc(Br)c1O`, the inhibition in assay [1] is 10%; in assay [2], 15% and 7%.
On to `COc1cc(N2CCN(C(C)C)CC2)ccc1Nc1nc(Nc2ccc(F)cc2C(N)=O)c2cc[nH]c2n1`, for which the inhibition in assay [1] is 6% and 4%; in assay [2], 16% and 10%.
On to `Nc1ncc(-c2cccc(S(N)(=O)=O)c2)c2scc(-c3ccc(F)c(Cl)c3)c12`, for which the inhibition was 1% and 2% in assay [1]; 0% in assay [2].
Turning to `NS(=O)(=O)c1cccc(Nc2cc(-c3ccc(F)cc3)n[nH]2)c1`, the inhibition was 5% in assay [1]; 23% and 21% in assay [2].
Consider `CNC(=O)c1sc(-n2cnc3cc(OC)c(OC)cc32)cc1OCc1ccccc1C(F)(F)F`, for which the inhibition is -3% and -2% in assay [1]; 3% and 2% in assay [2].
Regarding `NS(=O)(=O)c1ccc(-c2cc3ccncc3cc2OCc2ccccc2)cc1`, the inhibition in assay [1] was 0% and 1%; in assay [2], -1% and 0%.
Turning to `COc1cc(Nc2nccc(Nc3ccc4c(C)n[nH]c4c3)n2)cc(OC)c1OC`, the inhibition in assay [1] was 22% and 23%; in assay [2] it was 33% and 30%.
`Cn1c(-c2nonc2N)nc2cnccc21`: the inhibition in assay [1] was 2% and 3%; in assay [2], -4% and -2%.
Turning to `O=C(Nc1n[nH]c2cc(-c3cc(F)ccc3F)ccc12)C1CC1`, the inhibition in assay [1] is -3%; in assay [2] it was -4% and -2%.
Consider `COc1ccc(-c2ccc3c(NC(=O)C4CC4)n[nH]c3n2)cc1`, for which the inhibition in assay [1] was -1% and 0%; in assay [2] it was 4% and 5%.
In the case of `Cc1ccc(C(=O)NC2CCC2)cc1-c1ccc(C(=O)NCC2CC2)cc1`, the inhibition in assay [1] was -1% and -2%; in assay [2], -4% and -6%.
Turning to `COc1cc2ncn(-c3cc(OCc4ccccc4Cl)c(C(N)=O)s3)c2cc1OC`, the inhibition in assay [1] was 8% and 7%; in assay [2], 56% and 50%.
Regarding `COc1cccc(/C=N/Nc2ncnc3c2cnn3-c2cccc(OC)c2)c1`, the inhibition in assay [1] was -1% and 1%; in assay [2] it was 2% and 1%.
In the case of `CCn1c(-c2nonc2N)nc2cncc(C(=O)N3CCNCC3)c21`, the inhibition was -2% and 0% in assay [1]; 3% and 0% in assay [2].
In the case of `Nc1nccc(-c2c(-c3ccc(F)cc3)ncn2CCCN2CCOCC2)n1`, the inhibition was 1% and 3% in assay [1]; 0% and 1% in assay [2].
For the compound `COc1cc2ncnc(Nc3ccc(C)c(O)c3)c2cc1OC`, the inhibition in assay [1] is -1% and -2%; in assay [2], 3% and 1%.
As to `COC(=O)c1cncc(/C=C/c2c(C)cc(O)cc2C)c1`, the inhibition in assay [1] is 0% and 1%; in assay [2], -1% and 2%.
For `NC(=O)c1sc(-n2cnc3ccccc32)cc1OCc1ccccc1Br`, the inhibition was 2% and -1% in assay [1]; 0% and 3% in assay [2].
As for `Fc1cccc(COc2ccc(Nc3ncnc4sc(-c5ccco5)cc34)cc2Cl)c1`, the inhibition in assay [1] was 0% and 2%; in assay [2] it was 41% and 42%.
As for `COc1ccc(-c2nn3ncccc3c2-c2ccnc(Nc3ccc(F)c(F)c3)n2)cc1`, the inhibition in assay [1] was -4% and -3%; in assay [2], -6% and -9%.
In the case of `CNC(=O)c1cccc(C#Cc2cncnc2Nc2ccc(OCc3cccc(F)c3)c(Cl)c2)c1`, the inhibition in assay [1] is 7% and 1%; in assay [2] it was 6% and 3%.
Consider `CN1CCN(C(=O)c2ccc(NC(=O)Nc3ccc(N(C)c4ccnc(Nc5ccc(CS(C)(=O)=O)cc5)n4)cc3)cc2)CC1`, for which the inhibition is 26% and 22% in assay [1]; 14% and 13% in assay [2].
